Key:
CYP2C9 = CYP2C9 (Homo sapiens, UniProt P11712); experiment: In vitro CYP inhibition (direct and time-dependent), CYP2C9; format: in vitro ADME
Description: (§1) However, the likelihood of drug interactions is low since healthy participants who meet eligibility criteria will be enrolled in this Phase 1b/2a clinical trial. An allowance for select concomitant medications may be considered for select participants at the discretion of the investigator and/or sponsor if drug profiles are not anticipated to interact with Compound A. Such medications may include, but will not be limited to paracetamol or ibuprofen as assessed by both the PI and the Sponsor. […] Additional precautions to avoid grapefruit, pomegranates, star fruit, or Seville oranges for 7 days prior to admission, and juices and products containing these fruits for the duration of the study will be taken.

male Sprague Dawley rats = experiment: Rat 28-day repeat-dose GLP toxicity study; set-up: NOAEL increase over the minimum efficacious dose in rats: dose or concentration left out as unconfirmed
healthy men = experiment: Phase 1b MAD study (Part 1), 28-day dosing, safety and tolerability; format: in vivo, human
Method: Cohort 4 (receiving 180 mg) is currently being studied.

male mice = experiment: Mouse single dose non-GLP study; format: in vivo
CYP2B6 = CYP2B6 (Homo sapiens, UniProt P20813); experiment: In vitro CYP inhibition (direct and time-dependent), CYP2B6; format: in vitro ADME
Description: as §1

[1] = test system: mice, rats, dogs and NHPs; experiment: Research in nonclinical models (mice, rats, dogs and NHPs); format: in vivo, mouse, rat, dog, NHP
CYP2C8 = CYP2C8 (Homo sapiens, UniProt P10632); experiment: In vitro CYP inhibition (direct and time-dependent), CYP2C8; format: in vitro ADME
Description: as §1

[2] = Phase 1b MAD study (Part 1), 28-day dosing, PK; format: in vivo, human; conditions: for Cmax / AUC0-24 / AUC(0-t) / AUC(0-inf) / half-life: mean; for Tmax: median;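 as to all read-outs here: PK profiles sampled across 24 h on Day 1 and Day 28 while participants stayed overnight in the clinical research unit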
Description: • Part 1: Participants will have overnight stays in the clinical research unit in order to monitor their wellbeing and obtain 24-hour PK profiles on Day 1 and Day 28.

[3] = In vitro stability in liver microsomes (human); format: in vitro ADME
Method: (§2) Respective half-lives (T1/2) were 9.5 hours (human), 23.1 hours (monkeys), >23.1 hours (mice), >23.1 hours (rats), 19.6 hours (rabbits), and >23.1 hours (dogs).

rats [4] = experiment: Rat repeat dose non-GLP efficacy study (sperm counts, MABEL); format: in vivo
Method: Rat testicular toxicity reversibility characteristics and findings after repeat dosing are discussed in Section 3.1.4.
Rat 35-day repeat dose non-GLP study with a MABEL of 0.75 mg/kg/day.

rats [5] = experiment: Mating trials with rats; format: in vivo, rat; conditions: control 88%
[6] = Phase 1a single ascending oral dose study, PK; conditions: male, human, in vivo, fasted, geometric mean; for AUC(0-t): po
Method: Cohort 1 first received 10 mg, and after a 5-week washout period received 30 mg.

[7] = In vitro stability in microsomes (rat); format: in vitro ADME; conditions: rats
Method: as §2

[8] = In vitro stability in microsomes (mouse); format: in vitro ADME; conditions: mice, read-out: Half-life (T1/2) in microsomes
Method: as §2

CYP2C19 = CYP2C19 (Homo sapiens, UniProt P33261); experiment: In vitro CYP inhibition (direct and time-dependent), CYP2C19; format: in vitro ADME
Description: as §1

[9] = Metabolite identification in pooled hepatocytes (all species); format: in vitro ADME, human, monkey, mouse, rat, rabbit, dog
Description: Overall, each metabolite was present at less than 10% of the recoverable metabolic profile across all species. The rat produced 6 of the 8 quantified human metabolites and the dog produced 4 of the 8 human metabolites. […] Because the presence of these metabolites was ≤10% of the recoverable metabolic profile, and because all other human metabolites were represented in either the rat or dog, these 2 species were considered relevant species to assess toxicity.

[10] = rat, 3, 10 or 30 mg/kg/day for 28 days
[11] = 15, 30 or 90 mg once daily for 28 days
[12] = male, human, in vivo, oral, 30 mg, […] mg once daily, Day 28
[13] = male, human, in vivo, oral, 15 mg once daily, Day 28

Sequence of CYP2C19 (P33261 whole entry): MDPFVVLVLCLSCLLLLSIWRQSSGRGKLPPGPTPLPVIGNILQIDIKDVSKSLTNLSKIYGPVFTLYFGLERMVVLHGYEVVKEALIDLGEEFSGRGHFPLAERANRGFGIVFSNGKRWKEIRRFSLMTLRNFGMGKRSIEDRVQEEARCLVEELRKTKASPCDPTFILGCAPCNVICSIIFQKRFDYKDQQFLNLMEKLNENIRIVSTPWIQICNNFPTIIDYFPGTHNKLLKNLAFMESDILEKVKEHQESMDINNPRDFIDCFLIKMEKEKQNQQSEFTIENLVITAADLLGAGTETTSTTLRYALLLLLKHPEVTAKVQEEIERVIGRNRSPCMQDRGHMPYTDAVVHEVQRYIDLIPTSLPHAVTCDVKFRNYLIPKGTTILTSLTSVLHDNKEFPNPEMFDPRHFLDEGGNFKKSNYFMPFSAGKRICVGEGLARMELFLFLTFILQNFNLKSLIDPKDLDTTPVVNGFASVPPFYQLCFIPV
Sequence of CYP2C8 (P10632 whole entry): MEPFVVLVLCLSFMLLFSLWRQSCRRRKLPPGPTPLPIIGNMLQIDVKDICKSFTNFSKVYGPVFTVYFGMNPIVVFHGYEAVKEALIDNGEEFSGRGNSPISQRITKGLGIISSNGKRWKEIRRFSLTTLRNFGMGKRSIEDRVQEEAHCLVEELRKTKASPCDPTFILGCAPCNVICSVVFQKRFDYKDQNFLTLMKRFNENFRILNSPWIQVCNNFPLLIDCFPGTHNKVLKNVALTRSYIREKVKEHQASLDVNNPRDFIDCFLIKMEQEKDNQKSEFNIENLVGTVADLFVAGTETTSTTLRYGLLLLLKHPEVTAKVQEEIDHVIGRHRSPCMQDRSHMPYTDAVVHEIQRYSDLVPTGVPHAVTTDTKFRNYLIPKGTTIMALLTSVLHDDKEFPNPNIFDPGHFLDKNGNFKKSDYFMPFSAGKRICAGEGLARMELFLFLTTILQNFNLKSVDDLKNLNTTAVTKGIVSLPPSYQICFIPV
Sequence of CYP2C9 (P11712 whole entry): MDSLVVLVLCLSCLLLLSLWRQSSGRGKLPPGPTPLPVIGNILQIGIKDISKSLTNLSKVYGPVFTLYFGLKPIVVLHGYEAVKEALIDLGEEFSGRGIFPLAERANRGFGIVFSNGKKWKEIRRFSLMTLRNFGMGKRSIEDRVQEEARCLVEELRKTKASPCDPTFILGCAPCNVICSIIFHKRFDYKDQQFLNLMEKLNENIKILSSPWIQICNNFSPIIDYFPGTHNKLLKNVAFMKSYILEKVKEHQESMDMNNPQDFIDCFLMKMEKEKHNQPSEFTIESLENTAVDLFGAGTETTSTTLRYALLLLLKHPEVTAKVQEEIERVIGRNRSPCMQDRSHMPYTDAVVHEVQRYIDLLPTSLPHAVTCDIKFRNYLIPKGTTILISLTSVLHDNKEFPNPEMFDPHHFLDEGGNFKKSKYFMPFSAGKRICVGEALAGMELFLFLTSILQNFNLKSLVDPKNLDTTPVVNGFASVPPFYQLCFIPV
Sequence of CYP2B6 (P20813 whole entry): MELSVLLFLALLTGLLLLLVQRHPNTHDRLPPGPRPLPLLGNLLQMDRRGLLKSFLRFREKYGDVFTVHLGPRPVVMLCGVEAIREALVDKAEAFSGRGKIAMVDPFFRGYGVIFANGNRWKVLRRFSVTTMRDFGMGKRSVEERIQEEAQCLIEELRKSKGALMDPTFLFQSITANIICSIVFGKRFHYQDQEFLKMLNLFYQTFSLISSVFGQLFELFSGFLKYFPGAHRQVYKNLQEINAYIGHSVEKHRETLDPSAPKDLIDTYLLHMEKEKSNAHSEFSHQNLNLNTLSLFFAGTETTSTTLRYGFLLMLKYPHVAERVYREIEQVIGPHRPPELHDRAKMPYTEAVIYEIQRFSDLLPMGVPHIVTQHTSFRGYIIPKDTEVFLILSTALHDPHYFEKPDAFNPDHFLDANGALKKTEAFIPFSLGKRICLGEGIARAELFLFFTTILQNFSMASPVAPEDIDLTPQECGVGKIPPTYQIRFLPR

Cc1ccc(C2=CC(C)(C)Oc3ccc(-c4ccc(-c5ccc(C(=O)O)cc5)[nH]4)cc32)cc1 [Compound A]
IC50 (CYP2C9; CYP2C9): 14.6 µM
Time-dependent inhibition (TDI) (CYP2C9; CYP2C9, 0.3 to 100 μM): no TDI potential
NOAEL increase over the minimum efficacious dose in rats (male Sprague Dawley rats; rat NOAEL […] mg/kg/day, based on exposure): 40 fold
Prostate weight (male Sprague Dawley rats; [10]): unchanged
Recovery from testicular effects (male Sprague Dawley rats; [10]): very slow
Testosterone levels (male Sprague Dawley rats; rat, 3, 10 or 30 mg/kg/day for 28 days, inferred from prostate weight): did not change testosterone levels
AEs classified as possibly related to study treatment (healthy men; [11]): moderate ventricular triplet, mild skin rash, mild sunburn, mild increased urinary frequency and mild photosensitivity
AEs classified as possibly related to study treatment (number) (healthy men; [11]): Five
Serious adverse events (SAEs) (healthy men; 15, 30 or 90 mg once daily for 28 days, fasting, to date): no serious adverse events
Safety and tolerability (healthy men; 28-day oral administration, up to 90 mg, fasted state): safe and well tolerated
Tolerated single dose (highest dose tested) (male mice; male mice, non-GLP study): 1,000 mg/kg
HED of tolerated single dose (male mice; mice, 1,000 mg/kg): 81.3 mg/kg
IC50 (CYP2B6; CYP2B6): 6.1 µM
Time-dependent inhibition (TDI) (CYP2B6; CYP2B6, 0.3 to 100 μM): no TDI potential
Testosterone levels ([1]; mice, rats, dogs and NHPs): does not alter testosterone levels
Virility ([1]; mice, rats, dogs and NHPs): does not affect virility
Repeat dosing after which impairment of fertility / reduction of sperm counts was shown ([1]; nonclinical models): 3-4 weeks
IC50 (CYP2C8; CYP2C8): 8.37 µM
Time-dependent inhibition (TDI) (CYP2C8; CYP2C8, 0.3 to 100 μM): no TDI potential
Cmax ([2]; 15 mg once daily, Day 1): 247.8 ng/mL
AUC0-24 ([2]; 15 mg once daily, Day 28): 6,414 h*ng/mL
AUC0-24 ([2]; 90 mg once daily, Day 1): 14,091/ h*ng/mL
Cmax ([2]; 90 mg once daily, Day 1): 794.3 ng⁻¹ mL⁻¹
AUC0-24 ([2]; 90 mg once daily, Day 28): 22,710/ h*ng/mL
Cmax ([2]; 90 mg once daily, Day 28): 1,165/ ng/mL
AUC0-24 ([2]; […] mg once daily, Day 1): 10,060/ h*ng/mL
Cmax ([2]; […] mg once daily, Day 1): 544.5 ng⁻¹ mL⁻¹
AUC0-24 ([2]; […] mg once daily, Day 28): 9,585/ h*ng/mL
Cmax ([2]; […] mg once daily, Day 28): 551.5 ng⁻¹ mL⁻¹
AUC(0-t) ([2]; male, human, in vivo, oral, 15 mg, 15 mg once daily, Day 1, read-out: AUC0-24): 4850 ng·h/mL
AUC(0-t) ([2]; male, human, in vivo, oral, 15 mg, 15 mg once daily, Day 1, read-out: AUC0-last): 4850 ng·h/mL
Cmax ([2]; male, human, in vivo, oral, 15 mg, 15 mg once daily, Day 1, read-out: Cmax): 275 ng/mL
AUC(0-t) ([2]; male, human, in vivo, oral, 15 mg, 15 mg once daily, Day 28, read-out: AUC0-24): 6420 ng·h/mL
AUC(0-t) ([2]; male, human, in vivo, oral, 15 mg, 15 mg once daily, Day 28, read-out: AUC0-last): 24700 ng·h/mL
Cmax ([2]; male, human, in vivo, oral, 15 mg, 15 mg once daily, Day 28, read-out: Cmax): 348 ng/mL
AUC(0-t) ([2]; male, human, in vivo, oral, 30 mg, 30 mg once daily, Day 1, read-out: AUC0-24): 10100 ng·h/mL
AUC(0-t) ([2]; male, human, in vivo, oral, 30 mg, 30 mg once daily, Day 1, read-out: AUC0-last): 10100 ng·h/mL
Cmax ([2]; male, human, in vivo, oral, 30 mg, 30 mg once daily, Day 1, read-out: Cmax): 544 ng/mL
AUC(0-t) ([2]; male, human, in vivo, oral, 30 mg, 30 mg once daily, Day 28, read-out: AUC0-24): 9580 ng·h/mL
AUC(0-t) ([2]; male, human, in vivo, oral, 30 mg, 30 mg once daily, Day 28, read-out: AUC0-last): 36100 ng·h/mL
Cmax ([2]; male, human, in vivo, oral, 30 mg, 30 mg once daily, Day 28, read-out: Cmax): 552 ng/mL
Tmax ([2]; male, human, in vivo, oral, 30 mg, 30 mg once daily, Day 28): 6 h
AUC(0-inf) [2, 12]: 36400 ng·h/mL
half-life [2, 12]: 28.9 h
AUC(0-t) ([2]; male, human, in vivo, oral, 90 mg, 90 mg once daily, Day 1, read-out: AUC0-24): 14100 ng·h/mL
AUC(0-t) ([2]; male, human, in vivo, oral, 90 mg, 90 mg once daily, Day 1, read-out: AUC0-last): 14100 ng·h/mL
Cmax ([2]; male, human, in vivo, oral, 90 mg, 90 mg once daily, Day 1, read-out: Cmax): 794 ng/mL
Tmax ([2]; male, human, in vivo, oral, 90 mg, 90 mg once daily, Day 1): 6 h
AUC(0-t) ([2]; male, human, in vivo, oral, 90 mg, 90 mg once daily, Day 28, read-out: AUC0-24): 22700 ng·h/mL
Cmax ([2]; male, human, in vivo, oral, 90 mg, 90 mg once daily, Day 28, read-out: Cmax): 1160 ng/mL
AUC(0-inf) [2, 13]: 27500 ng·h/mL
half-life [2, 13]: 35.8 h
Half-life (T1/2) in microsomes [3]: 9.5 h
HED (based on BSA) of MABEL (rats [4]; rat): 0.1 mg/kg
HED for 60 kg BW of MABEL (rats [4]; rat): 7.2 mg
HED for 80 kg BW of MABEL (rats [4]; rat): 9.6 mg
MABEL (rats [4]; rat, 35-day repeat dose non-GLP): 0.75 mg/kg/day
Lowest dose with decreases in sperm counts / minimum efficacious dose in rats (rats [4]; rat, repeat dose for 36 days): 0.75 mg/kg/day
Recovery from disruption of spermatogenesis (rats [4]; rats, 28-day dosing at 0.75 mg/kg/day and 1 mg/kg/day): recover from disruption of spermatogenesis
Fertility (rats [5]; 3 mg/kg/day dose group): 13%
Fertility (rats [5]; 10 mg/kg/day dose group): 6%
Fertility (rats [5]; 30 mg/kg/day dose group): 0%
AUC(0-t) ([6]; 10 mg, single oral dose 10 mg, read-out: AUC0-24): 2380 ng·h/mL
AUC(0-t) ([6]; 10 mg, single oral dose 10 mg, read-out: AUC0-last): 8180 ng·h/mL
AUC(0-t) ([6]; 30 mg, single oral dose 30 mg, read-out: AUC0-24): 3520 ng·h/mL
AUC(0-t) ([6]; 30 mg, single oral dose 30 mg, read-out: AUC0-last): 12400 ng·h/mL
AUC(0-t) ([6]; 90 mg, single oral dose 90 mg, read-out: AUC0-24): 8430 ng·h/mL
AUC(0-t) ([6]; 90 mg, single oral dose 90 mg, read-out: AUC0-last): 26300 ng·h/mL
AUC(0-t) ([6]; 180 mg, single oral dose 180 mg, read-out: AUC0-24): 27300 ng·h/mL
AUC(0-t) ([6]; 180 mg, single oral dose 180 mg, read-out: AUC0-last): 73400 ng·h/mL
AUC(0-inf) ([6]; single oral dose 10 mg): 9560 ng·h/mL
Cmax ([6]; single oral dose 10 mg): 131 ng/mL
half-life ([6]; single oral dose 10 mg): 53.5 h
AUC(0-inf) ([6]; single oral dose 30 mg): 12900 ng·h/mL
Cmax ([6]; single oral dose 30 mg): 200 ng/mL
half-life ([6]; single oral dose 30 mg): 61.7 h
AUC(0-inf) ([6]; single oral dose 90 mg): 26800 ng·h/mL
Cmax ([6]; single oral dose 90 mg): 472 ng/mL
half-life ([6]; single oral dose 90 mg): 71.3 h
AUC(0-inf) ([6]; single oral dose 180 mg): 75400 ng·h/mL
Cmax ([6]; single oral dose 180 mg): 1750 ng/mL
half-life ([6]; single oral dose 180 mg): 76.3 h
half-life ([7]; rat, read-out: Half-life (T1/2) in microsomes): > 23.1 h
Compound remaining intact ([7]; 90 minutes): 113%
half-life [8]: > 23.1 h
IC50 (CYP2C19; CYP2C19): 85.1 µM
Time-dependent inhibition (TDI) (CYP2C19; CYP2C19, 0.3 to 100 μM): no TDI potential
Metabolites yielded by biotransformation ([9]; 10 μM, pooled hepatocytes): 10 metabolites
Human metabolites produced (of the 8) ([9]; dog hepatocytes): 4
Quantified human metabolites produced (of the 8) ([9]; rat hepatocytes): 6

Reference: patent publication US20260191825A1, “CONTRACEPTIVE COMPOUNDS AND DOSING FOR THE SAME” (YourChoice Therapeutics, Inc., priority 2024, published 2026)
